Test system: PbrACO2
Details: citrate to isocitrate conversion; recombinant His-PbrACO2

Q: For `O=C(O)CC(O)(CC(=O)O)C(=O)O` [citrate], which Km is on record?
A: 630 µM

Reference: PMC12512694, “PbrNAC34a- PbrMYB3/65- PbrACO2 cascade plays a role in citrate difference between the pericarp and cortex tissues of pear (P. bretschneideri Rehd.) fruit” (Molecular Horticulture, 2025)
